“And” between values parts separate entries of the source, which are not always exact repeats. Equal entries are not always repeated.
Legend:
[1] = test system: Apo E^−/− mice; assay: Apo E−/− mice given RvD5n-3 DPA: lipid mediator profiling of descending aorta; assay type: in vivo, mouse
Method: Plasma was obtained from peripheral blood of healthy volunteers and patients following centrifugation at 1500×g for 10 min at room temperature. Descending aortas were weighed, placed in ice-cold methanol and homogenized using a glass dounce.
All samples for LC-MS-MS-based profiling were extracted using solid-phase extraction columns as described in Dalli et al. 2013 and Rathod et al. 2017, the contents of which are incorporated herein by reference.
Prior to sample extraction, deuterated internal standards, representing each region in the chromatographic analysis (500 pg each) were added to facilitate quantification in 4V of cold methanol.
Samples were kept at −20° C. for a minimum of 45 min to allow protein precipitation.
Supernatants were subjected to solid phase extraction, methyl formate fraction collected, brought to dryness and suspended in phase (methanol/water, 1:1, vol/vol) for injection on a Shimadzu LC-20AD HPLC and a Shimadzu SIL-20AC autoinjector, paired with a triple quadrupole mass spectrometer with or without a linear ion trap.
An Agilent Poroshell 120 EC-C18 column (100 mm×4.6 mm×2.7 μm) was kept at 50° C. and mediators eluted using a mobile phase consisting of methanol-water-acetic acid of 20:80:0.01 (vol/vol/vol) that was ramped to 50:50:0.01 (vol/vol/vol) over 0.5 min and then to 80:20:0.01 (vol/vol/vol) from 2 min to 11 min, maintained till 14.5 min and then rapidly ramped to 98:2:0.01 (vol/vol/vol) for the next 0.1 min. This was subsequently maintained at 98:2:0.01 (vol/vol/vol) for 5.4 min, and the flow rate was maintained at 0.5 ml/min. Mass spectrometer was operated using a multiple reaction monitoring method as in Walker M E et al. 13-Series resolvins mediate the leukocyte-platelet actions of atorvastatin and pravastatin in inflammatory arthritis. FASEB J. 2017 August; 31(8):3636-3648, the contents of which are incorporated herein by reference.
Each LM was identified using established criteria including matching retention time to synthetic and authentic materials and at least six diagnostic ions (Walker M E et al. 2017. ibid.)
Calibration curves were obtained for each using synthetic compound mixtures at 0.78, 1.56, 3.12, 6.25, 12.5, 25, 50, 100, and 200 pg that gave linear calibration curves with an r^2 values of 0.98-0.99.
Mice (male and female) were fed a western diet for 6 weeks from 4 weeks of age and kept of a 12 h light dark cycle. At 8 weeks of age, mice were given RvD5n-3 DPA (100 ng/mouse; i.v.) or vehicle on alternate days for a 2-week period. Mice were culled, aortic arches were collected and stained using oil-red O as in Khambata R S et al. Anti-inflammatory actions of inorganic nitrate stabilize the atherosclerotic plaque. Proc Natt Acad Sci USA. 2017; 114(4):E550-E559, the contents of which are incorporated herein by reference. Staining intensity was determined using image processing software and expressed as relative units per mm^2. The descending aorta was collected, placed in ice-cold methanol and lipid mediators identified and quantified as described above.

[2] = test system: platelet rich plasma; assay: PRP incubations with RvD5n-3 DPA then PAF, platelet adhesion molecule expression by flow cytometry; assay type: cell-based, human; settings: 0.1-10 nM, 15 min, then PAF 100 nM 30 min
Method: FIG. 21: RvD2n-3 DPA and RvD5n-3 DPA reduce monocyte, neutrophil and platelet activation in healthy volunteer peripheral blood. […] Cell activation and leukocyte-platelet aggregates were assessed using flow cytometry. (A,B) Images depicting platelet monocyte (A) and (B) platelet-neutrophil aggregates. Results are representative of n=3 distinct experiments. (C,D) Cumulative neutrophil (C) CD11b and (D) CD62P expression. (E,F) Monocyte (E) CD11b and (F) CD62P expression. Results are mean of n=5 per condition and expressed as percentage change from PAF incubated cells. *p<0.05 compared to PAF using Wilcoxon Signed Rank Test. (G) Platelet rich plasma was incubated with vehicle (PBS) or RvD5n-3 DPA 0.1-10 nM (15 min; 37° C.) and PAF (100 nM; 30 min; 37° C.). Adhesion molecule expression evaluated using flow cytometry. Results are mean±s.e.m. n=5 healthy volunteers. * p, 0.05 compared to Vehicle group using Friedman's test followed by Dunn's multiple comparisons test.
Peripheral blood from healthy volunteers was collected in acidified-citrate-dextrose. Blood was centrifuged at 500×g for 20 min. PRP was collected and cells incubated with RvD5n-3 DPA or vehicle (0.01% EtOH+PBS) for 15 min at 37° C. Cells were then incubated with PAF (100 nM) or Vehicle (0.01% EtOH) for 30 min at 37° C. Cells were then washed with PBS and cellular activation was assessed using flow cytometry as detailed below.
In select experiments platelet adhesion molecule expression was assessed. Here platelets were incubated with fluorescently labelled mouse anti-human VioBlue-anti-CD41, PE-Cy5-anti-CD62P, PerCP/Cy5.5-anti-CD63 and FITC-ant-CD42b for 30 min at 4° C. Cells were then washed and fluorescence, staining evaluated using LSRFortessa cell analyser (BD Biosciences) and analysed using FlowJo software (Tree Star Inc., V10).

[3] = 100 ng/mouse i.v., alternate days, 2 weeks, vs vehicle
[4] = Apo E−/− mice, western diet, RvD5n-3 DPA 100 ng/mouse i.v. alternate days 2 weeks, descending aorta, mean, n = 4
[5] = ApoE−/− mice, WD 6 weeks, 100 ng/mouse i.v. alternative days, descending aorta, mean ± s.e.m., n = 4
[6] = ApoE−/− mice, WD 6 weeks, 100 ng/mouse i.v. alternative days, descending aorta, n = 4

**Q.** For CC/C=C\C[C@H](O)/C=C/C=C\C/C=C\C=C\[C@@H](O)CCCCCC(=O)O [RvD5n-3 DPA, 7,17-trihydroxy-8E,10,13,15E,19Z-docosapentaenoic acid], which “aortic 15-epi-LXA4” value [1, 3] is on record?
**A.** significant upregulation

**Q.** And the “aortic MaR1” value [1, 3]?
**A.** significant upregulation

**Q.** And the aortic prostanoids [1, 3]?
**A.** significant reductions

**Q.** And the “reduction of aortic TxB2 concentrations” value [1, 3]?
**A.** ~35% and > 35%

**Q.** What about the “PGD2 concentration in aortic tissue” value [1, 4] of the same molecule?
**A.** 15.0 pg/10 mg tissue

**Q.** And the “PGE2 concentration in aortic tissue” value [1, 4]?
**A.** 16.2 pg/10 mg tissue

**Q.** And the “PGF2a concentration in aortic tissue” value [1, 4]?
**A.** 9.1 pg/10 mg tissue

**Q.** What about the “TxB2 concentration in aortic tissue” value ([1]; Apo E−/− mice, western diet, RvD5n-3 DPA 100 ng/mouse i.v. alternate days 2 weeks, descending aorta, mean, n = 4, p < 0.05 vs Vehicle) of the same molecule?
**A.** 30.7 pg/10 mg tissue

**Q.** What about the “4,14-diHDHA in aorta” value [1, 5] of the same molecule?
**A.** 4.9 ± 2.0 pg/10 mg aorta

**Q.** And the “5S,12S-diHETE in aorta” value [1, 5]?
**A.** 0.6 ± 0.2 pg/10 mg aorta

**Q.** And the “5S,15S-diHETE in aorta” value [1, 5]?
**A.** 51.9 ± 15.3 pg/10 mg aorta

**Q.** What about the “7S,14S-diHDHA in aorta” value [1, 5] of the same molecule?
**A.** 1.8 ± 0.3 pg/10 mg aorta

**Q.** And the “10S,17S-diHDHA in aorta” value [1, 5]?
**A.** 66.0 ± 35.4 pg/10 mg aorta

**Q.** And the 15-epi-LXA4 in aorta [1, 5]?
**A.** 9.6 ± 1.9 pg/10 mg aorta

**Q.** What about the 15-epi-LXB4 in aorta [1, 5] of the same molecule?
**A.** 1.4 ± 0.5 pg/10 mg aorta

**Q.** And the 17R-PD1 in aorta [1, 5]?
**A.** 0.3 ± 0.2 pg/10 mg aorta

**Q.** And the 17R-RvD1 in aorta [1, 5]?
**A.** 1.6 ± 0.9 pg/10 mg aorta

**Q.** What about the 17R-RvD3 in aorta [1, 5] of the same molecule?
**A.** 1.3 ± 0.3 pg/10 mg aorta

**Q.** And the 22-OH-PD1 in aorta [1, 5]?
**A.** 6.0 ± 1.0 pg/10 mg aorta

**Q.** What about the LTB4 in aorta [1, 5] of the same molecule?
**A.** 1.7 ± 0.3 pg/10 mg aorta

**Q.** What about the LXA4 in aorta [1, 5] of the same molecule?
**A.** 0.3 ± 0.0 pg/10 mg aorta

**Q.** What about the LXB4 in aorta [1, 5] of the same molecule?
**A.** 0.6 ± 0.4 pg/10 mg aorta

**Q.** And the MaR1 in aorta [1, 5]?
**A.** 35.4 ± 22.7 pg/10 mg aorta

**Q.** And the PD1 in aorta [1, 5]?
**A.** 2.6 ± 0.7 pg/10 mg aorta

**Q.** And the “PD1n-3 DPA in aorta” value [1, 5]?
**A.** 0.0 ± 0.0 pg/10 mg aorta

**Q.** And the PGD2 in aorta [1, 5]?
**A.** 14.9 ± 3.5 pg/10 mg aorta

**Q.** And the PGE2 in aorta [1, 5]?
**A.** 20.5 ± 4.5 pg/10 mg aorta

**Q.** What about the PGF2α in aorta [1, 5] of the same molecule?
**A.** 10.0 ± 1.7 pg/10 mg aorta

**Q.** What about the RvD1 in aorta [1, 5] of the same molecule?
**A.** 1.7 ± 0.9 pg/10 mg aorta

**Q.** And the “RvD1n-3 DPA in aorta” value [1, 5]?
**A.** 0.1 ± 0.1 pg/10 mg aorta

**Q.** What about the RvD2 in aorta [1, 5] of the same molecule?
**A.** 0.4 ± 0.4 pg/10 mg aorta

**Q.** And the “RvD2n-3 DPA in aorta” value [1, 5]?
**A.** 0.1 ± 0.1 pg/10 mg aorta

**Q.** What about the RvD3 in aorta [1, 5] of the same molecule?
**A.** 2.4 ± 0.6 pg/10 mg aorta

**Q.** What about the RvD5 in aorta [1, 5] of the same molecule?
**A.** 0.4 ± 0.2 pg/10 mg aorta

**Q.** And the “RvD5n-3 DPA in aorta” value [1, 5]?
**A.** 0.1 ± 0.1 pg/10 mg aorta

**Q.** And the RvD6 in aorta [1, 5]?
**A.** 1.5 ± 1.1 pg/10 mg aorta

**Q.** And the RvE2 in aorta [1, 5]?
**A.** 0.1 ± 0.1 pg/10 mg aorta

**Q.** What about the RvE3 in aorta [1, 5] of the same molecule?
**A.** 0.7 ± 0.1 pg/10 mg aorta

**Q.** What about the RvEl in aorta [1, 5] of the same molecule?
**A.** 1.8 ± 0.5 pg/10 mg aorta

**Q.** And the TxB2 in aorta [1, 5]?
**A.** 34.5 ± 4.1 pg/10 mg aorta

**Q.** And the 20-OH-LTB4 in aorta [1, 6]?
**A.** — (Below limits of detection)

**Q.** And the “MaR1n-3 DPA in aorta” value [1, 6]?
**A.** — (Below limits of detection)

**Q.** What about the RvD4 in aorta [1, 6] of the same molecule?
**A.** — (Below limits of detection)

**Q.** What about the RvT1 in aorta [1, 6] of the same molecule?
**A.** — (Below limits of detection)

**Q.** And the RvT2 in aorta [1, 6]?
**A.** — (Below limits of detection)

**Q.** What about the RvT3 in aorta [1, 6] of the same molecule?
**A.** — (Below limits of detection)

**Q.** And the RvT4 in aorta [1, 6]?
**A.** — (Below limits of detection)

**Q.** And the “PAF mediated upregulation of CD41 expression on platelets” value [2]?
**A.** dose dependent reduction

**Q.** What about the “PAF mediated upregulation of CD62P expression on platelets” value [2] of the same molecule?
**A.** dose dependent reduction

**Q.** And the “PAF mediated upregulation of CD63 expression on platelets” value [2]?
**A.** dose dependent reduction

Source: patent US12616672B2, “Methods for assessing risk of cardiovascular disease and methods and compounds for use in treating or preventing cardiovascular disease” (Queen Mary University of London, priority 2017, dated 2026)
